Source: patent US20180344748A1, “METHODS AND COMPOSITIONS FOR PREVENTING OR TREATING CHRONIC INFLAMMATORY DISEASES” (ENTERIN LABORATORIES, INC., priority 2017, published 2018)

Tests used:
Assay type in all cases: cell-based
human monocytes = test: Chemotaxis assay, human monocytes; conditions: bell shaped concentration curve; FIG. 3B
Experimental: (§1) FIGS. 3A-F: α-Synuclein is a chemoattractant dependent on CD11b. Assays were conducted as described in the examples below. The average of 3 independent assays for each sample is presented. The concentration of the α-synuclein aggregate is in terms of the monomer. A positive control, FMLP, is noted in black. NAc 1-21, the N-acetylated peptide corresponding to the first 21 amino acids of α-synuclein; 1-25, a peptide corresponding to the first 25 amino acids. FIG. 3A=Human Neutrophils; FIG. 3B=Human monocytes; FIGS. 3C and 3D=Representative photos of the cellular response. FIG. 3E=Neutrophils from CD11b −/− or wild type mice (0.5×10^6/ml), assayed as described in the examples. FIG. 3F=Human neutrophils incubated in the presence of anti-CD11b antibody or control (50 μg/ml each). CM, control media (negative control)
(§2) Chemotaxis, or the movement of cells in response to a chemical stimulus, is routinely measured in a Boyden chamber. In this apparatus, immune cells are attached to one side of a membrane containing pores through which the immune cells can traffic. On the other side of the membrane a chemoattractant is introduced. Over the course of several hours the immune cells migrate from the side of the membrane on which they were initially placed to the side exposed to the chemoattractant. […] After 24 hours the number of immune cells that have migrated to towards the chemoattractant are counted. […]

human neutrophils = test: Chemotaxis assay, human neutrophils; conditions: bell shaped concentration curve; FIG. 3A
Experimental: as §1, §2

[1] = system: human monocyte derived dendritic cells; test: Dendritic cell maturation, flow cytometry of surface markers; conditions: 10 μM, 48 h, FIG. 4
Experimental: FIG. 4: Human monocyte derived dendritic cells were incubated at 5×10^5/ml in the presence of recombinant monomeric or aggregated alpha-synuclein, and the NAc 1-21 amino terminal peptide of alpha-synuclein (each at a final concentration of 10 μM) for 48 h before they were immunostained and analyzed by flow cytometry for the expression of the indicated surface molecules. E. coli lipopolysaccharide (LPS) (100 ng/ml) was included as a positive control. Shown are the results of one experiment representative of three. The ordinate of […].
Chemotaxis assays followed published procedures. De et al. (2000). Neutrophils and monocytes were isolated from the blood of healthy human donors as described. Id. Recombinant human α-synuclein (lot #20162050, endotoxin contamination 18.6 EU/mg) was from Proteos, Inc. via the Michael J. Fox Foundation. The α-synuclein aggregates were made following a protocol provided by Proteos. […]
Human monocyte derived dendritic cells were exposed for 2 days to α-synuclein monomer, aggregate, and N—Ac 1-21 peptide and then analyzed by flow cytometry to measure the extent of phenotypic maturation, using CD80, CD83, CD86, HLA-ABC, and HLA-DR as determinants (FIG. 4).

Substance	chemotactic activity towards human monocytes (human monocytes)	chemotactic activity towards human neutrophils (human neutrophils)	dendritic cell maturation (CD80, CD83, CD86, HLA-ABC, HLA-DR) [1]
peptide, extending to residue 25: a peptide corresponding to the first 25 amino acids of α-synuclein, lacking the N-acetyl moiety	inactive	inactive	
N-acetylated peptide: the N-acetylated peptide corresponding to the first 21 amino acids of α-synuclein	retained the chemotactic activity of the full-length protein	retained the chemotactic activity of the full-length protein	did not
